# According to patent US20130158072A1, “KAPPA OPIOID RECEPTOR BINDING LIGANDS” (Research Triangle Institute, priority 2010, published 2013):
# Where “and” joins values, the source holds several entries; their conditions need not be identical. Identical values can stand only once.
# Experiments:
# [1] = target: T1, cloned human μ-opioid receptor (Homo sapiens, UniProt P35372); experiment: Inhibition of DAMGO-stimulated [35S]GTPγS binding; type: biochemical; settings: for μ, DAMGO Ke: antagonism of DAMGO-stimulated [35S]GTPγS binding, CHO cells, means ± SE, at least three experiments; for potency at μ receptors compared to 3: compared with 3
# T1 construct: expressed in transfected cells; host or cells: CHO cells
# Method: (§1) Test compound assay concentrations ranged from 1-5000 nM, depending on their activity. The Ke values were calculated using the formula: Ke=[L]/DR−1, where [L] is the concentration of test compound and DR is the ratio of agonist EC50 value in the presence or absence of test compound, respectively.
# [2] = target: cloned human κ-opioid receptor (Homo sapiens, UniProt P41145); experiment: Inhibition of U69,593-stimulated [35S]GTPγS binding; settings: for change in potency on N-methylation at the tetrahydroisoquinoline nitrogen: 8c: at all receptor subtypes, others: at κ receptors; for κ, U69,593 Ke: antagonism of U69,593-stimulated [35S]GTPγS binding, CHO cells, means ± SE, at least three experiments; for δ/κ / μ/κ: ratio of Ke values; for δ/κ: κ selectivity relative to δ; for μ/κ: κ selectivity relative to μ
# Method: as §1
# [3] = target: T2, cloned human δ-opioid receptor (Homo sapiens, UniProt P41143); experiment: Inhibition of DPDPE-stimulated [35S]GTPγS binding; type: biochemical; settings: for δ, DPDPE Ke: antagonism of DPDPE-stimulated [35S]GTPγS binding, CHO cells, means ± SE, at least three experiments
# T2 construct: expressed in transfected cells; host or cells: CHO cells
# T2 sequence (P41143 whole entry): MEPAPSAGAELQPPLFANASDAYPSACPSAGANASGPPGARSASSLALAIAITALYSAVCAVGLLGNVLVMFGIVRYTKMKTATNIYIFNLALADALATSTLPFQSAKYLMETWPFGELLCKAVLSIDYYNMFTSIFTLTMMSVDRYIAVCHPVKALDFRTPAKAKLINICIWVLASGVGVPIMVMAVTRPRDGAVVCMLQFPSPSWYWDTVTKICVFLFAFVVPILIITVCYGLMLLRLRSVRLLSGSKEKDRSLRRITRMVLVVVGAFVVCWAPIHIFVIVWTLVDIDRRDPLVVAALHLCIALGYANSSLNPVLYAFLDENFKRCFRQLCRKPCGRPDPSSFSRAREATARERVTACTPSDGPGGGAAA
# Method: as §1
# cloned human κ-opioid receptor, sequence (P41145 whole entry): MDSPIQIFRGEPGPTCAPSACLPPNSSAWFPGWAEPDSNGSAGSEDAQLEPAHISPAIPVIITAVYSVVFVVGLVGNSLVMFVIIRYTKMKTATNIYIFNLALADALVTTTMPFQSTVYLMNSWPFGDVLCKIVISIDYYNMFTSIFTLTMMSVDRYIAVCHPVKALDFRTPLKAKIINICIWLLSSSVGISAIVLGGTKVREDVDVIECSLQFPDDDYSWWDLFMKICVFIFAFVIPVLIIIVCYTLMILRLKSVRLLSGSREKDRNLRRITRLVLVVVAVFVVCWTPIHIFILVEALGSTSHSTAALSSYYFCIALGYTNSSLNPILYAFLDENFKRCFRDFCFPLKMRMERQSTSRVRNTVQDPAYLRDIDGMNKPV
# T1 sequence (P35372 whole entry): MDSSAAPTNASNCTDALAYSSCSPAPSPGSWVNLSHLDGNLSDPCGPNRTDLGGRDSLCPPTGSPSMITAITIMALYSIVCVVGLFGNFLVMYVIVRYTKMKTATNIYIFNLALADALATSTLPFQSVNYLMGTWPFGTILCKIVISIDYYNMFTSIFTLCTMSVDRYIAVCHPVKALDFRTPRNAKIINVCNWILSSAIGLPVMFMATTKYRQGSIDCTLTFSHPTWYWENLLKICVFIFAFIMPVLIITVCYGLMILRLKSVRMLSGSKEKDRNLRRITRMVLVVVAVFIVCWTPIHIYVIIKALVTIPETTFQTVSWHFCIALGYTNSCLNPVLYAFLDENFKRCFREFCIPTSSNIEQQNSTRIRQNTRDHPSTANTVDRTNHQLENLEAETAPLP
Compound,"μ, DAMGO Ke [1] [nM]",change in potency on N-methylation at the tetrahydroisoquinoline nitrogen [2],"κ, U69,593 Ke [2]",δ/κ [2],μ/κ [2],"δ, DPDPE Ke [3] [nM]",Kb [1] [nM],Kb [2] [nM],decrease in potency at the κ receptor relative to 3 ([2]; compared with 3),Kb [3] [nM],potency at μ receptors compared to 3 [1]
CC(C)[C@@H](CN1CC[C@@](C)(c2cccc(O)c2)[C@@H](C)C1)NC(=O)[C@H]1Cc2ccc(O)cc2CN1C [Compound 8c],210 ± 60,reduction in potency at all receptor subtypes,0.16 nM and 0.16 ± 0.06 nM,3070,1313,491 ± 120,–,–,–,–,–
"COc1cccc([C@]2(C)CCN(C[C@@H](NC(=O)[C@H]3Cc4ccc(O)cc4CN3)C(C)C)C[C@@H]2C)c1 [Compound 8d, (3R)-7-Hydroxy-N-[(1S)-1-{[(3R,4R)-4-(3-methoxyphenyl)-3,4-dimethylpiperidin-1-yl]methyl}-2-methylpropyl]-1,2,3,4-tetrahydroisoquinoline-3-carboxamide]",–,–,–,573,649,–,24 ± 8,0.037 ± 0.003,two-fold decrease in potency,21.2 ± 5,–
"CC(C)[C@@H](CN1CC[C@@](C)(c2cccc(O)c2)[C@@H](C)C1)NC(=O)[C@@]1(C)Cc2ccc(O)cc2CN1 [Compound 8e, (3R)-7-Hydroxy-N-[(1S)-1-[(3R,4R)-4-(3-hydroxyphenyl)-3,4-dimethylpiperidin-1-yl]methyl}-(2-methylpropyl]-3-methyl-1,2,3,4-tetrahydroisoquinoline-3-carboxamide]",3.6 ± 1,–,0.03 nM and 0.03 ± 0.008 nM,–,–,854 ± 210,–,–,–,–,–
"CC[C@H](C)[C@@H](CN1CC[C@@](C)(c2cccc(OC)c2)[C@@H](C)C1)NC(=O)[C@H]1Cc2ccc(O)cc2CN1 [Compound 8f, (3R)-7-Hydroxy-N-[(1S,2S)-1-{[(3R,4R)-4-(3-methoxyphenyl)-3,4-dimethylpiperidin-1-yl]methyl}-2-methylbutanyl]-1,2,3,4-tetrahydroisoquinoline-3-carboxamide]",–,–,–,–,–,–,5.1 ± 2,0.96 ± 0.4,–,–,increased potency
"COc1ccc2c(c1)CN[C@@](C)(C(=O)N[C@H](CN1CC[C@@](C)(c3cccc(O)c3)[C@@H](C)C1)C(C)C)C2 [Compound 8g, (3R)-7-Methoxy-N-[(1S)-1-[(3R,4R)-4-(3-hydroxyphenyl)-3,4-dimethylpiperidin-1-yl]methyl}-(2-methylpropyl]-3-methyl-1,2,3,4-tetrahydroisoquinoline-3-carboxamide]",3.8 ± 1.1,–,0.93 ± 0.05 nM,40,4,36.8 ± 6.9,–,–,–,–,–
"COc1cccc([C@]2(C)CCN(C[C@@H](NC(=O)[C@@]3(C)Cc4ccc(O)cc4CN3)C(C)C)C[C@@H]2C)c1 [Compound 8h, (3R)-7-Hydroxy-N-[(1S)-1-{[(3R,4R)-4-(3-methoxyphenyl)-3,4-dimethylpiperidin-1-yl]methyl}-2-methylpropyl]-3-methyl-1,2,3,4-tetrahydroisoquinoline-3-carboxamide]",–,–,–,–,–,–,–,0.26 ± 0.1,–,2200 ± 900,–
"CC[C@H](C)[C@@H](CN1CC[C@@](C)(c2cccc(O)c2)[C@@H](C)C1)NC(=O)[C@@]1(C)Cc2ccc(O)cc2CN1 [Compound 8i, (3R)-7-Hydroxy-N-[(1S,2S)-1-{[(3R,4R)-4-(3-hydroxyphenyl)-3,4-dimethylpiperidin-1-yl]methyl}-2-methylbutanyl]-3-methyl-1,2,3,4-tetrahydroisoquinoline-3-carboxamide]",–,–,–,–,–,–,8.7 ± 2.7,0.11 ± 0.01,–,–,increased potency
"CC[C@H](C)[C@@H](CN1CC[C@@](C)(c2cccc(O)c2)[C@@H](C)C1)NC(=O)[C@H]1Cc2ccc(O)cc2CN1C [Compound 8j, (3R)-7-Hydroxy-N-[(1S,2S)-1-{[(3R,4R)-4-(3-hydroxyphenyl)-3,4-dimethylpiperidin-1-yl]methyl}-2-methylbutanyl]-2-methyl-1,2,3,4-tetrahydroisoquinoline-3-carboxamide]",–,decreases in potency,–,1200,66,–,7.2 ± 1.8,0.11 ± 0.03,–,132 ± 24,increased potency
"COc1cccc([C@]2(C)CCN(C[C@@H](NC(=O)[C@H]3Cc4ccc(O)cc4CN3C)C(C)C)C[C@@H]2C)c1 [Compound 8k, (3R)-7-Hydroxy-N-[(1S)-1-{[(3R,4R)-4-(3-methoxyphenyl)-3,4-dimethylpiperidin-1-yl]methyl}-2-methylpropyl]-2-methyl-1,2,3,4-tetrahydroisoquinoline-3-carboxamide]",–,decreases in potency,–,–,–,–,880 ± 220,4.3 ± 2.7,–,2300 ± 900,–
"COc1cccc([C@]2(C)CCN(C[C@@H](NC(=O)[C@@]3(C)Cc4ccc(OC)cc4CN3)C(C)C)C[C@@H]2C)c1 [Compound 8l, (3R)-7-Methoxy-N-[(1S)-1-{[(3R,4R)-4-(3-methoxyphenyl)-3,4-dimethylpiperidin-1-yl]methyl}-2-methylpropyl]-3-methyl-1,2,3,4-tetrahydroisoquinoline-3-carboxamide]",–,–,–,–,–,–,–,15.2 ± 3.7,–,> 10000,–
"CC[C@H](C)[C@@H](CN1CC[C@@](C)(c2cccc(OC)c2)[C@@H](C)C1)NC(=O)[C@@]1(C)Cc2ccc(O)cc2CN1 [Compound 8n, (3R)-7-Hydroxy-N-[(1S,2S)-1-{[(3R,4R)-4-(3-methoxyphenyl)-3,4-dimethylpiperidin-1-yl]methyl}-2-methylbutanyl)-3-methyl-1,2,3,4-tetrahydroisoquinoline-3-carboxamide]",–,–,–,–,–,–,–,0.52 ± 0.2,–,2100 ± 600,–
"COc1ccc2c(c1)CN(C)[C@@](C)(C(=O)N[C@H](CN1CC[C@@](C)(c3cccc(O)c3)[C@@H](C)C1)C(C)C)C2 [Compound 8o, (3R)-7-Methoxy-N-[(1S)-1-{[(3R,4R)-4-(3-hydroxyphenyl)-3,4-dimethylpiperidin-1-yl]methyl}-2-methylpropyl]-2,3-dimethyl-1,2,3,4-tetrahydroisoquinoline-3-carboxamide]",–,decreases in potency,–,–,–,–,7 ± 1.4,2.2 ± 0.6,–,–,–
"CC[C@H](C)[C@@H](CN1CC[C@@](C)(c2cccc(OC)c2)[C@@H](C)C1)NC(=O)[C@H]1Cc2ccc(O)cc2CN1C [Compound 8p, (3R)-7-Hydroxy-N-[(1S,2S)-1-{[(3R,4R)-4-(3-methoxyphenyl)-3,4-dimethylpiperidin-1-yl]methyl}-2-methylbutanyl]-2-methyl-1,2,3,4-tetrahydroisoquinoline-3-carboxamide]",–,decreases in potency,–,–,180,–,360 ± 120,2.03 ± 0.03,–,> 10000,–
"(3R)-7-Methoxy-N-[(1S,2S)-1-{[(3R,4R)-4-(3-hydroxyphenyl)-3,4-dimethylpiperidin-1-yl]}-2-methylbutanyl]-3-methyl-1,2,3,4-tetrahydroisoquinoline-3-carboxamide [Compound 8m]",17.5 ± 3.6,–,–,5,5,18.7 ± 1.5,–,–,–,–,increased potency
